How the values were obtained:
[1] = target: Beta-2 adrenergic receptor (Homo sapiens, UniProt P07550); test: DRUGMATRIX: Adrenergic beta2 radioligand binding (ligand: [3H] CGP-12177); type: cell membranes, CHO, Membrane; settings: cho; Not Active = under 50% inhibition at 10 µM
[2] = DRUGMATRIX: GABAA, Flunitrazepam, Central radioligand binding (ligand: [3H] Flunitrazepam); type: cell membranes, Rattus norvegicus, Wistar, Brain, Membrane; settings: Not Active = under 50% inhibition at 10 µM
[3] = target: T1, Cathepsin G (Homo sapiens, UniProt P08311); type: tissue-based; settings: neutrophil;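 also: inhibition of Cathepsin G enzyme activity, tested on an AMC-conjugated peptide substrate; in other assays of this panel Not Active means under 50% inhibition at 10 µM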
T1 sequence (P08311 whole entry): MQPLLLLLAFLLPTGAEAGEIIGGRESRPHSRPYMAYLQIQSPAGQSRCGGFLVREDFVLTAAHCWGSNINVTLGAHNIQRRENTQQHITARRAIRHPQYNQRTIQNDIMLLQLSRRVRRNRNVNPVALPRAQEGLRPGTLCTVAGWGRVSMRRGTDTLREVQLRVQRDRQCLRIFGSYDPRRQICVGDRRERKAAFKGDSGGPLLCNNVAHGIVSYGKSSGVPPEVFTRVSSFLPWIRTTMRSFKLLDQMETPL

[4] = target: T2, Neutrophil elastase (Homo sapiens, UniProt P08246); type: tissue-based;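 also: inhibition of neutrophil elastase enzyme activity, measured with a p-nitroanilide-linked peptide substrate; in other assays of this panel Not Active means under 50% inhibition at 10 µM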
T2 sequence (P08246 whole entry): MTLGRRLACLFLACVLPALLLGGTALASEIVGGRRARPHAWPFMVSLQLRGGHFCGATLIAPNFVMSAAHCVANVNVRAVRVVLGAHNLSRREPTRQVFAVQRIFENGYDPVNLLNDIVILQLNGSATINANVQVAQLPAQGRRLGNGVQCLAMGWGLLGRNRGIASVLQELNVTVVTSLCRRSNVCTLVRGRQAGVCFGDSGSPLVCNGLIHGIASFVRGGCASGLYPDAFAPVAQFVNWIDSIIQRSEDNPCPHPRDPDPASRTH

[5] = target: T3, Adenosine receptor A3 (Homo sapiens, UniProt P0DMS8); type: cell membranes, CHO-K1, Membrane; settings: cho-k1;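 also: radioligand binding assay with AB-MECA serving as the labeled ligand; in other assays of this panel Not Active means under 50% inhibition at 10 µM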
T3 sequence (P0DMS8 whole entry): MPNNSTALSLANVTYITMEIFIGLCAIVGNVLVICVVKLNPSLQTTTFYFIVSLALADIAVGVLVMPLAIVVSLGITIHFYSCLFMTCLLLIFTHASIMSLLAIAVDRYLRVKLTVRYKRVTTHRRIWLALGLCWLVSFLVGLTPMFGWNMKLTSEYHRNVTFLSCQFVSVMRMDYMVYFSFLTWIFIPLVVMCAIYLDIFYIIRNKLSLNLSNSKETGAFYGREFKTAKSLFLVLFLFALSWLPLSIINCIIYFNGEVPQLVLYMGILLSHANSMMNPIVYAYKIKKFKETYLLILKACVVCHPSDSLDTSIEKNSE

C[C@H]1O[C@@H](n2cc(F)c(=O)[nH]c2=O)[C@H](O)[C@@H]1O [DOXIFLURIDINE]
Not Active: IC50 [1] | IC50 [2] | Ki [2] | IC50 [3] | IC50 [4] | IC50 [5]

CC[C@H]1CN2CCc3cc(OC)c(OC)cc3[C@@H]2C[C@@H]1C[C@H]1NCCc2cc(OC)c(OC)cc21 [EMETINE]
Not Active: IC50 [1] | IC50 [2] | Ki [2] | IC50 [3] | IC50 [4] | IC50 [5]

O=c1cnn([C@@H]2O[C@H](CO)[C@@H](O)[C@H]2O)c(=O)[nH]1 [6-AZAURIDINE]
Not Active: IC50 [1] | IC50 [2] | Ki [2] | IC50 [3] | IC50 [4] | IC50 [5]

COC(=O)CCc1ccc(OCC(O)CNC(C)C)cc1 (centres undefined) [ESMOLOL]
Not Active: IC50 [1] | IC50 [2] | Ki [2] | IC50 [3] | IC50 [4] | IC50 [5]

C[C@@H]1O[C@@H](O[C@@H]2C=C3CC[C@@H]4[C@H](CC[C@]5(C)[C@@H](c6ccc(=O)oc6)CC[C@]45O)[C@@]3(C)CC2)[C@H](O)[C@H](O)[C@H]1O [PROSCILLARIDIN]
Not Active: IC50 [1] | IC50 [2] | Ki [2] | IC50 [3] | IC50 [4] | IC50 [5]

NYSTATIN
Not Active: IC50 [1] | Ki [1] | IC50 [2] | Ki [2] | IC50 [3] | Ki [3] | IC50 [4] | Ki [4] | IC50 [5] | Ki [5]

COc1cc(N)c(Cl)cc1C(=O)NC1CCN(CCCOc2ccc(F)cc2)CC1OC (centres undefined) [CISAPRIDE]
Not Active: IC50 [1] | IC50 [2] | Ki [2] | IC50 [3] | IC50 [4] | IC50 [5]

C[C@@H]1C[C@H]2[C@@H]3CCC4=CC(=O)C=C[C@]4(C)[C@@]3(F)[C@@H](O)C[C@]2(C)[C@@]1(O)C(=O)CO [DEXAMETHASONE]
Not Active: IC50 [1] | IC50 [2] | Ki [2] | IC50 [3] | IC50 [4] | IC50 [5]

O=C(c1ccccc1C(F)(F)F)N1CCC(Cc2ccccc2)CC1
Not Active: IC50 [1] | IC50 [2] | Ki [2] | IC50 [3] | IC50 [4] | IC50 [5]

Brc1c(NC2=NCCN2)ccc2nccnc12 [BRIMONIDINE]
Not Active: IC50 [1] | IC50 [2] | Ki [2] | IC50 [3] | IC50 [4] | IC50 [5]

CC1(C)S[C@@H]2[C@H](NC(=O)[C@H](N)c3ccccc3)C(=O)N2[C@H]1C(=O)O [AMPICILLIN]
Not Active: IC50 [1] | IC50 [2] | Ki [2] | IC50 [3] | IC50 [4] | IC50 [5]

C[n+]1ccccc1/C=N/O.[Cl-] [PRALIDOXIME CHLORIDE]
Not Active: IC50 [1] | IC50 [2] | Ki [2] | IC50 [3] | IC50 [4] | IC50 [5]

COc1cc2nc(N3CCN(C(=O)c4ccco4)CC3)nc(N)c2cc1OC [PRAZOSIN]
Not Active: IC50 [1] | IC50 [2] | Ki [2] | IC50 [3] | IC50 [4] | IC50 [5]

Cc1c(OCC(F)(F)F)ccnc1C[S+]([O-])c1nc2ccccc2[nH]1 (centres undefined) [LANSOPRAZOLE]
Not Active: IC50 [1] | IC50 [2] | Ki [2] | IC50 [3] | IC50 [4] | IC50 [5]

CN1[C@@H]2CC[C@H]1C[C@@H](OC(=O)C(CO)c1ccccc1)C2 (some centres undefined) [ATROPINE]
Not Active: IC50 [1] | IC50 [2] | Ki [2] | IC50 [3] | IC50 [4] | IC50 [5]
